Measurements as given in article PMC11435058, “Synthesis of New Thiazole-Privileged Chalcones as Tubulin Polymerization Inhibitors with Potential Anticancer Activities” (Pharmaceuticals, 2024).
Like-named read-outs stand apart in the source and are kept apart here.

Experiments:
[1] = test system: 60 human tumor cell lines panel; experiment: NCI-60 anticancer screen, whole panel (means and ranges over the cell lines); type: cell-based; conditions: for activity at 10 µM: Homo sapiens, 48 h, dose of 10 μM
HL-60(TB) = experiment: NCI-60 anticancer screen (SRB; single dose and five doses); conditions: Homo sapiens
K-562 = experiment: as above; conditions: Homo sapiens
MOLT-4 = experiment: as above; conditions: Homo sapiens
RPMI-8226 = experiment: as above; conditions: Homo sapiens
SR = experiment: as above; conditions: Homo sapiens
A549/ATCC = experiment: as above; conditions: Homo sapiens
HOP-62 = experiment: as above; conditions: Homo sapiens
HOP-92 = experiment: as above; conditions: Homo sapiens
COLO 205 = experiment: as above; conditions: Homo sapiens
HCT-15 = experiment: as above; conditions: Homo sapiens
HT29 = experiment: as above; conditions: Homo sapiens
KM12 = experiment: as above; conditions: Homo sapiens
SF-268 = experiment: as above; conditions: Homo sapiens
LOX IMVI = experiment: as above; conditions: Homo sapiens
MALME-3M = experiment: as above; conditions: Homo sapiens
SK-MEL-5 = experiment: as above; conditions: Homo sapiens
UACC-62 = experiment: as above; conditions: Homo sapiens
IGROV1 = experiment: as above; conditions: Homo sapiens
NCI/ADR-RES = experiment: as above; conditions: Homo sapiens
CAKI-1 = experiment: as above; conditions: Homo sapiens
RXF 393 = experiment: as above; conditions: Homo sapiens
PC-3 = experiment: as above; conditions: Homo sapiens
DU-145 = experiment: as above; conditions: Homo sapiens
MDA-MB-231/ATCC = experiment: as above; conditions: Homo sapiens
HS 578T = experiment: as above; conditions: Homo sapiens
BT-549 = experiment: as above; conditions: Homo sapiens
T-47D = experiment: as above; conditions: Homo sapiens, T47D
[2] = five doses, mean graph midpoint over all cell lines
[3] = 48 h, read-out: Growth Percentage

Cc1[nH]c(=S)sc1C(=O)/C=C/c1ccc([N+](=O)[O-])cc1 [2i, (E)-1-(4-Methyl-2-Thioxo-2,3-Dihydrothiazol-5-yl)-3-(4-Nitrophenyl)Prop-2-En-1-One]
activity at 10 µM ([1]; mean over the tested cell lines, read-out: Mean growth percentage): 25.2%
activity at 10 µM ([1]; range over the cell lines, read-out: growth percentages against most of the tested cells (lowest to highest)): -86.2 to 108%
Log10GI50 _MID [1, 2]: -5.13 Molar
Log10LC50 _MID [1, 2]: -4.25 Molar
Log10TGI _MID [1, 2]: -4.62 Molar
GI50 (HL-60(TB); HL-60): 3.05 µM
activity at 10 µM (HL-60(TB); HL-60, 48 h, read-out: Growth Percentage): -5.39%
CC50 (HL-60(TB); HL-60, read-out: LC50): > 100 µM
IC (TGI) (HL-60(TB); HL-60, read-out: TGI): 16.9 µM
GI50 (K-562; K562): 3.5 µM
activity at 10 µM (K-562; K562, 48 h, read-out: Growth Percentage): 12.3%
CC50 (K-562; K562, read-out: LC50): > 100 µM
IC (TGI) (K-562; K562, read-out: TGI): > 100 µM
GI50 (MOLT-4; MOLT-4): 3.79 µM
activity at 10 µM (MOLT-4; MOLT-4, 48 h, read-out: Growth Percentage): 14.2%
CC50 (MOLT-4; MOLT-4, read-out: LC50): > 100 µM
IC (TGI) (MOLT-4; MOLT-4, read-out: TGI): > 100 µM
GI50 (RPMI-8226; RPMI-8226): 3.55 µM
activity at 10 µM (RPMI-8226; RPMI-8226, 48 h, read-out: Growth Percentage): -7.9%
CC50 (RPMI-8226; RPMI-8226, read-out: LC50): > 100 µM
IC (TGI) (RPMI-8226; RPMI-8226, read-out: TGI): > 100 µM
GI50 (SR): 2.86 µM
activity at 10 µM (SR; [3]): -4.81%
CC50 (SR; read-out: LC50): > 100 µM
IC (TGI) (SR; read-out: TGI): > 100 µM
GI50 (A549/ATCC; A549): 17 µM
activity at 10 µM (A549/ATCC; A549, 48 h, read-out: Growth Percentage): 75.7%
CC50 (A549/ATCC; A549, read-out: LC50): 69 µM
IC (TGI) (A549/ATCC; A549, read-out: TGI): 34.2 µM
GI50 (HOP-62; HOP-62): 6.43 µM
activity at 10 µM (HOP-62; HOP-62, 48 h, read-out: Growth Percentage): 21.6%
CC50 (HOP-62; HOP-62, read-out: LC50): 67.7 µM
IC (TGI) (HOP-62; HOP-62, read-out: TGI): 23.2 µM
GI50 (HOP-92; HOP-92): 12.2 µM
activity at 10 µM (HOP-92; HOP-92, 48 h, read-out: Growth Percentage): 57.6%
CC50 (HOP-92; HOP-92, read-out: LC50): 64.4 µM
IC (TGI) (HOP-92; HOP-92, read-out: TGI): 28 µM
GI50 (COLO 205; COLO 205): 15.9 µM
activity at 10 µM (COLO 205; COLO 205, 48 h, read-out: Growth Percentage): 91.5%
CC50 (COLO 205; COLO 205, read-out: LC50): > 100 µM
IC (TGI) (COLO 205; COLO 205, read-out: TGI): 41.1 µM
GI50 (HCT-15; HCT-15): 2.46 µM
activity at 10 µM (HCT-15; HCT-15, 48 h, read-out: Growth Percentage): -62.1%
CC50 (HCT-15; HCT-15, read-out: LC50): 33.7 µM
IC (TGI) (HCT-15; HCT-15, read-out: TGI): 7.86 µM
GI50 (HT29; HT-29): 10.7 µM
activity at 10 µM (HT29; HT-29, 48 h, read-out: Growth Percentage): 62.8%
CC50 (HT29; HT-29, read-out: LC50): 68.7 µM
IC (TGI) (HT29; HT-29, read-out: TGI): 27.1 µM
GI50 (KM12; KM12): 3.8 µM
activity at 10 µM (KM12; KM12, 48 h, read-out: Growth Percentage): -72.5%
CC50 (KM12; KM12, read-out: LC50): 40 µM
IC (TGI) (KM12; KM12, read-out: TGI): 13.6 µM
GI50 (SF-268; SF-268): 15.6 µM
activity at 10 µM (SF-268; SF-268, 48 h, read-out: Growth Percentage): 47.4%
CC50 (SF-268; SF-268, read-out: LC50): 67.3 µM
IC (TGI) (SF-268; SF-268, read-out: TGI): 32.4 µM
GI50 (LOX IMVI): 1.85 µM
activity at 10 µM (LOX IMVI; [3]): -86.2%
CC50 (LOX IMVI; read-out: LC50): 8.91 µM
IC (TGI) (LOX IMVI; read-out: TGI): 4.06 µM
GI50 (MALME-3M): 13.7 µM
activity at 10 µM (MALME-3M; [3]): 75.2%
CC50 (MALME-3M; read-out: LC50): 70.8 µM
IC (TGI) (MALME-3M; read-out: TGI): 31.1 µM
GI50 (SK-MEL-5; SK-MEL-5): 12 µM
activity at 10 µM (SK-MEL-5; SK-MEL-5, 48 h, read-out: Growth Percentage): 53.8%
CC50 (SK-MEL-5; SK-MEL-5, read-out: LC50): 49.7 µM
IC (TGI) (SK-MEL-5; SK-MEL-5, read-out: TGI): 24.4 µM
GI50 (UACC-62; UACC-62): 10.5 µM
activity at 10 µM (UACC-62; UACC-62, 48 h, read-out: Growth Percentage): 47.5%
IC (TGI) (UACC-62; UACC-62, read-out: TGI): 22.4 µM
GI50 (IGROV1; IGROV-1): 4.43 µM
activity at 10 µM (IGROV1; IGROV-1, 48 h, read-out: Growth Percentage): 16.1%
CC50 (IGROV1; IGROV-1, read-out: LC50): 50.8 µM
IC (TGI) (IGROV1; IGROV-1, read-out: TGI): 14.9 µM
GI50 (NCI/ADR-RES): 14.9 µM
activity at 10 µM (NCI/ADR-RES; [3]): -4.45%
CC50 (NCI/ADR-RES; read-out: LC50): 82.8 µM
IC (TGI) (NCI/ADR-RES; read-out: TGI): 35.2 µM
GI50 (CAKI-1; CAKI-1): 13.9 µM
activity at 10 µM (CAKI-1; CAKI-1, 48 h, read-out: Growth Percentage): 31.1%
CC50 (CAKI-1; CAKI-1, read-out: LC50): 52.7 µM
IC (TGI) (CAKI-1; CAKI-1, read-out: TGI): 27.1 µM
GI50 (RXF 393; RXF 393): 4.88 µM
activity at 10 µM (RXF 393; RXF 393, 48 h, read-out: Growth Percentage): -4.35%
CC50 (RXF 393; RXF 393, read-out: LC50): 44.8 µM
IC (TGI) (RXF 393; RXF 393, read-out: TGI): 18.6 µM
GI50 (PC-3; PC-3): 10.3 µM
activity at 10 µM (PC-3; PC-3, 48 h, read-out: Growth Percentage): 51.3%
CC50 (PC-3; PC-3, read-out: LC50): > 100 µM
IC (TGI) (PC-3; PC-3, read-out: TGI): 37.3 µM
GI50 (DU-145; DU-145): 3.41 µM
activity at 10 µM (DU-145; DU-145, 48 h, read-out: Growth Percentage): 21.4%
CC50 (DU-145; DU-145, read-out: LC50): 34.5 µM
IC (TGI) (DU-145; DU-145, read-out: TGI): 11 µM
GI50 (MDA-MB-231/ATCC; MDA-MB-231): 12 µM
activity at 10 µM (MDA-MB-231/ATCC; MDA-MB-231, 48 h, read-out: Growth Percentage): 10.8%
CC50 (MDA-MB-231/ATCC; MDA-MB-231, read-out: LC50): 51.5 µM
IC (TGI) (MDA-MB-231/ATCC; MDA-MB-231, read-out: TGI): 24.8 µM
GI50 (HS 578T): 13 µM
activity at 10 µM (HS 578T; [3]): 68.1%
CC50 (HS 578T; read-out: LC50): 80.9 µM
IC (TGI) (HS 578T; read-out: TGI): 32.4 µM
GI50 (BT-549; BT-549): 5.04 µM
activity at 10 µM (BT-549; BT-549, 48 h, read-out: Growth Percentage): 20.1%
IC (TGI) (BT-549; BT-549, read-out: TGI): 19.3 µM
GI50 (T-47D): 4.96 µM
activity at 10 µM (T-47D; [3]): 44.3%
CC50 (T-47D; read-out: LC50): > 100 µM
IC (TGI) (T-47D; read-out: TGI): 25.7 µM
